Assay results from publication PMC10418366, “Fighting Celiac Disease: Improvement of pH Stability of Cathepsin L In Vitro by Computational Design” (International Journal of Molecular Sciences, 2023).

Molecular target: T1, rTcCathL1 (Tribolium castaneum cathepsin L) (Tribolium castaneum, UniProt D6X519)
T1 construct: gene AUGUSTUS-3.0.2_01950; mature enzyme after autocatalytic processing (pH 4.0, 37 °C) of recombinant proenzyme secreted by Pichia pastoris GS115 (pPICZalphaA); signal peptide and propeptide total 115 residues (stated for the model)
Assay: active-site titration with irreversible inhibitor
Type: biochemical
Settings: covalent, 37 °C assay with Glp-Phe-Gln-pNA, 6 mM cysteine, 1 mM EDTA

T1 sequence (D6X519 116-328): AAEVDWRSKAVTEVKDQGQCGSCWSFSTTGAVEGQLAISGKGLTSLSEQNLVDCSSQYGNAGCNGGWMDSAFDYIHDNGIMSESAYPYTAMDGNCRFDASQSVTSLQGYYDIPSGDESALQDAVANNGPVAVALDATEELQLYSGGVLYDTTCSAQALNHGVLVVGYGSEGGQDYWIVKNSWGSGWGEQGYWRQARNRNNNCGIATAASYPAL

Question: How did the “active-site titration with irreversible inhibitor” value turn out when `CC(C)C[C@H](NC(=O)[C@H]1O[C@@H]1C(=O)O)C(=O)NCCCCN=C(N)N` [E-64] was run?
Answer: Its value is “titration of peptidase active sites with the irreversible inhibitor E-64”.
